Source: patent US7722858B2, “Prevention and treatment of atherosclerosis by reducing carbamylation of LDL or the effects of carbamylated LDL” (Board of Trustees of the University of Arkansas, priority 2001, dated 2010)
Entries after “also recorded” stand apart in the source; their conditions may differ.

Experiments:
[1] = system: carbamylation of LDL; assay: In vitro inhibition of LDL carbamylation by potassium cyanate; format: biochemical, human; conditions: molar ratios of 1:1 to 16:1 (L-lysine:KOCN)
Method: CLDL (cLDL) was produced by chemical modification of nLDL. Native LDL was incubated under sterile conditions with potassium cyanate (Aldrich; Milwaukee, Wis.) (20 mg KOCN/mg nLDL) at 35° C. for 4 hours. Salt was removed by excessive dialysis against 0.15 M NaCl, 0.01% EDTA, pH 7.0 at 4° C. for 48 hours under sterile conditions. To obtain cLDL carbamylated to different degrees, various incubation periods, from 5 to 300 min, were used.
Assessment of carbamylation was made (a) on the basis of relative electrophoretic mobility in agarose gel, and (b) by the homocitrulline assay as described by Trepanier et al.. Briefly, 25 μg of LDL protein in PBS, pH 7.4 (50 μl volume) was incubated with 2 μg proteinase K and 1% SDS (v:v) at 37° C. for 2 hours. Then 250 μl of urea-nitrogen reagent (0.83 M sulfuric acid, 1.13 M orthophosphoric acid, 0.55 mM thiosemicarbazide, 2.6 mM cadmium sulfate), 50 μl 3% diacetyl monoxime in water was added and the mixture was incubated at 97° C. for 30 min. Samples were transferred into a 96-well plate and absorption of chromogen(s) was recorded at 530 nm. Homocitrulline (carbamyl lysine) standard curves (0-30 nmol) were generated using serial dilutions of a stock solution (200 μM) in PBS, pH 7.4. Results are expressed as nmol homocitrulline/mg LDL protein).

[2] = system: lens protein; conditions: cited from earlier work
[3] = system: HCAECs; assay: Flow cytometry of LDL-treated cells double-labeled with BrdU and 7-AAD; format: cell-based, human
Method: Flow cytometry of LDL-treated cells double-labeled with BrdU and 7-AAD (marker of total DNA) was performed to detect whether BrdU incorporation is linked to DNA synthesis or DNA repair, and whether mitosis is suppressed, and thus accumulation of polyploid cells is associated with the increase of BrdU incorporation.

[4] = system: rat lens; conditions: rat lens incubated in cyanate; cited from earlier work

## N=C(N)NCCC[C@H](N)C(=O)O [L-arginine]
[1]
  inhibition of carbamylation of LDL in vitro: can inhibit carbamylation of LDL in vitro

## NCC(=O)O [L-glycine]
[1]
  inhibition of carbamylation of LDL in vitro: can inhibit carbamylation of LDL in vitro

## CC(C)Cc1ccc(C(C)C(=O)O)cc1 (stereo not shown) [ibuprofen]
[2]
  binding of cyanate to lens protein: dose-dependent decrease

## N#C[O-].[K+] [Potassium cyanate, potassium cyanate]
[3]
  induction of proliferation or DNA synthesis: did not induce proliferation or DNA synthesis

## CC(=O)Oc1ccccc1C(=O)O [aspirin]
[4]
  cyanate-induced increase in phase separation temperature: aspirin-preventable increase in phase separation temperature

## O=C(O)COc1nn(Cc2ccccc2)c2ccccc12 [Bendazac]
[2]; present with cyanate
  carbamylation of lens protein: inhibits the carbamylation of lens protein

## NCCCC[C@H](N)C(=O)O [L-lysine]
[1]
  inhibition of carbamylation of LDL in vitro: can inhibit carbamylation of LDL in vitro; also recorded: inhibition of LDL carbamylation
